Reference: patent US11097016B2, “Use of lyso-Gb1 as druggable target” (Centogene GmbH, priority 2016, dated 2021)
Entries after “also recorded” stand apart in the source; their conditions may differ.

Columns and labels:
[1] = system: F4/80 and CD68; test: Western blot of inflammatory tissue markers F4/80 and CD68 in spleen and liver; type: in vivo, C57BL/6JRj mice
Method: Livers and spleens were homogenized in RIPA buffer containing proteinase and phosphatase inhibitor (Roche, Mannheim, GER). Lysates were centrifuged at 15,000 g, 4° C. for 15 min to remove insoluble pellet, and supernatant was collected. Protein concentration was measured using Pierce BCA Protein Assay Kit (Thermo Fisher Scientific, Waltham, Mass.). Typically, […] protein was loaded for electrophoresis on a 4%-15% precast Tris-glycine gradient gel (BioRad, Mannheim, GER). The protein was subsequently transferred to a nitrocellulose membrane by semidry transfer apparatus (BioRad, Munich, GER) for immunodetection analysis. The target proteins were detected by rat anti F4/80 (1:500, Biolegend, San Diego, Calif.), rat anti-CD68 [FA-11] (1:200 abcam, Cambridge, UK) mouse anti GAPDH (1:10,000, abcam, Cambridge, UK), each in TBST supplemented with 5% skim milk powder (Sigma Aldrich, Munich, GER). Fluorescent conjugate secondary antibodies were applied for the detection with a Li-Cor Odyssey imaging system (Bad Homburg, GER).
In order to investigate the molecular changes of both spleen and liver in terms of tissue inflammation macrophagic marker proteins F4/80 and CD68 were analysed.

[2] = Histopathological evaluation (H&E) of spleen, liver and femur; type: in vivo, C57BL/6JRj mice; conditions: data not shown
Method: After removal, organs were fixed in formalin for 24 h and transferred into 70% ethanol. To ensure a non-biased comparison the same parts of organs were analysed by HISTALIM (Montpellier, France). The samples were processed on the Peloris automaton (Leica, Wetzlar, Germany) according to the 4 h program validated for mouse organs. The samples were embedded in paraffin wax according to HISTALIM procedures. For the liver, spleen and femur samples, a section (3-5 μm thickness) was prepared and deposited preferentially on Superfrost+slide (to ensure tissue adhesion) to be stained according to a validated hematoxylin/eosin (H&E) protocol. All the slides were digitalised with the Nanozoomer scanner (Hamamatsu Photonics, Hamamatsu, Japan) in conditions bright field conditions, with the objective×20, without Z stack. Slides were examined by a senior histopathologist to assess the toxicological effects of lyso-Gb1 on the tested mice.

[3] = Lyso-Gb1 level in blood (dried blood spots, LC/MRM-MS) upon continuous subcutaneous administration; type: in vivo, C57BL/6JRj mice
Method: (§1) Animal experimental procedures were carried out at Pharmacelsus GmbH, Saarbrücken, Germany. Adult male C57BL/6JRj mice (10 weeks old, purchased from Janvier Labs, France) were housed in a temperature-controlled room (20-24° C.) and maintained in a 12 h light/12 h dark cycle. Food (Ssniff® R/M-H, 10 mm) and water were provided ad libitum.
All experimental procedures were approved by and conducted in accordance with the regulations of the local Animal Welfare authorities. The lyso-Gb1 stock solution was prepared in DMSO and propylene glycol at 37° C. with ultrasonic bath treatment for 10 min. Subcutaneous administration of lyso-Gb1 (Matreya LLC, USA) was achieved by the use of ALZET pumps implanted in the back of their necks and set to a flow rate of 2.64 μl/day in order to obtain a daily dosage of 10 mg lyso-Gb1/kg body weight. The pumps were loaded with the stock solution and primed prior to implantation according to the manufacturer's instructions.
(§2) Blood sampling was carried out using Li-heparine blood obtained from the lateral tail vein. At each sampling time point 2 aliquots of 20 μl were transferred to dried blood spot filter cards (Centogene AG, Rostock, Germany). After the last sampling time point the mice were sacrificed by inhalation of an overdose of isoflurane and organs were removed, frozen and collected for future examinations. Where applicable, organs were intersected. Half of the organ was immediately frozen in liquid nitrogen. The other half was formalin-fixed and paraffin-embedded for histologic analysis (Histalim, Montpellier, France).
3 punches of 3.2 mm in diameter were cut using a DBS puncher (Perkin Elmer LAS, Germany) and placed in a 2.2 ml round bottom tube (Eppendorf, Germany). 50 μl extraction solution (DMSO: water, 1:1) and 100 μI internal standard solution with the standard being dissolved in ethanol were added on top of the paper punches. Samples were mixed for 30 seconds and placed in an incubator (Heidolph, Schwabach, Germany) for 30 minutes at 37° C. under agitation at 700 rpm. […]
LC-MRM-MS analyses of the lyso-Gb1 for both DBS and organ extracts were performed using a Waters Acquity UPLC (Waters, UK) coupled with an ABSciex 5500 TripleQuad mass spectrometer (ABSciex, Darmstadt, Germany). […] The following MRM transitions were monitored: 624.3-282.2 for the internal standard (with DP of 30V, CE of 38 V and CXP of 10 V) and 462.3→282.2 for lyso-Gb1 (with DP of 28V, CE of 30 V and CXP of 10 V). MRM-MS analyses were performed in positive ion mode using the following parameters: CUR gas 40 psi, IS voltage 5.5 kV, CAD 8 psi, cone temperature 500° C., GS 1 45 psi, GS2 60 psi, EP 10 V. For all batches analyzed a standard curve was measured using 7 dilutions of lyso-Gb1 in ethanol (concentrations in ng/ml: 0; 5; 10; 50; 100; 200; 1000). […]

[4] = Blood count analysis for systemic damage; type: in vivo, C57BL/6JRj mice
Method: Mice were exsanguinated via the retrobulbar venous plexus under isoflurane anesthesia before being sacrificed by overdose inhalation. 200 μL EDTA samples of whole blood were drawn from each animal to analyze […], leukocyte count, erythrocyte count, hemoglobin (Hb), hematocrit (PCV=packed cell volume, Hct), mean cell volume (MCV), mean cell Hb (MCH), mean cell Hb concentration. (MCHC) and platelet count (PLT) (IDEXX Bioresearch, Ludwigsburg, Germany).
3.1 It was tested whether the high lyso-Gb1 levels caused systemic damage to the animals. Such systemic damage was assessed by blood count analysis.

[5] = system: CD68 and F4/80 positive cells; test: Immunohistochemistry of spleen sections (anti-CD68, anti-F4/80); type: in vivo, C57BL/6JRj mice
Method: For immunohistochemistry 5 μm paraffin sections of the spleens of 8-week treated mice were subjected to rat anti-CD68 clone FA-11 (1:100, Bio-Rad Laboratories, Raleigh, N.C., USA) and rat anti-mouse F4/80 Cl:A3-1 (1:100, BioLegend, San Diego, Calif., USA). Sections were then deparaffinised, rehydrated and pre-treated in the microwaves in 0.1 M citrate buffer (5 min 850 W and 5 min 340 W) followed by consecutive incubation with 3% H2O2 in PBS to block endogenous peroxidases for 30 min, then 3% bovine serum albumin with 1.5% normal goat serum (NGS) in PBS for 1 h to block nonspecific epitopes. Subsequently, sections were exposed to the primary antibody in 3% NGS/PBS overnight at 4° C. Depending on the primary antibody and after washing in PBS, the sections were sequentially incubated for 1 h with the secondary anti-rat or anti-mouse IgG (1:200; Vector, Burlingame, Calif., USA), streptavidin-biotin-complex (ABC) reagent for 1 h (Vectastain-Elite; Vector, Burlingame, Calif., USA) and then finally visualised with 3,-3,-diaminobenzidine (DAB, Sigma, Munich, Germany), which was activated with H2O2. Sections were counterstained with hematoxylin, dehydrated, mounted with DePeX and coverslipped.

[6] = Lyso-Gb1 in 24 hr urine (LC/MRM-MS); type: in vivo, C57BL/6JRj mice; conditions: 6 weeks after treatment start
Method: 25 μL urine aliquots were added to 100 μL of internal standard and 250 μL ethanol. The samples were cooled to 4° C. for 1 h to precipitate the urine proteins, after which they were spun in a benchtop centrifuge for 3 minutes at 14,500 rpm. The volume of each sample was quantitatively transferred to a 96-well plate, and further processed as described above.
LC-MRM-MS analyses of the lyso-Gb1 for both DBS and organ extracts were performed using a Waters Acquity UPLC (Waters, UK) coupled with an ABSciex 5500 TripleQuad mass spectrometer (ABSciex, Darmstadt, Germany). Chromatographic run was performed on a C8 column with pore size of […] (ACE columns, Germany) using a flow rate of 0.9 ml/min preheated at 60° C. […] The following MRM transitions were monitored: 624.3-282.2 for the internal standard (with DP of 30V, CE of 38 V and CXP of 10 V) and 462.3→282.2 for lyso-Gb1 (with DP of 28V, CE of 30 V and CXP of 10 V). MRM-MS analyses were performed in positive ion mode using the following parameters: CUR gas 40 psi, IS voltage 5.5 kV, CAD 8 psi, cone temperature 500° C., GS 1 45 psi, GS2 60 psi, EP 10 V. For all batches analyzed a standard curve was measured using 7 dilutions of lyso-Gb1 in ethanol (concentrations in ng/ml: 0; 5; 10; 50; 100; 200; 1000).

[7] = Lyso-Gb1 determination in organs (LC/MRM-MS); type: in vivo, C57BL/6JRj mice
Method: After extraction from the animal, the organs were immediately deep-frozen in liquid nitrogen. The samples were lyophilized (Alpha 2-4 LSC, Christ, Osterode am Harz, GER) and powdered with mortar and pistil. Fractions of 2 to 5 mg powder were established in round bottom tubes. On top of the powder, 50 μl per mg powder extraction solution was added and the sample was incubated for 5 minutes at 37° C. under agitation. Subsequently, the samples were frozen in liquid nitrogen for 30 seconds and sonicated with boost function for 5 minutes. The incubation, freezing and sonication steps were repeated 6 times. At the end the mixtures were vortexed and aliquots of 25 μl suspension were used for the lyso-Gb1 determination. Each sample was supplemented with 100 μl Internal Standard (lyso-Gb2, 200 ng/ml) and 250 μl ethanol. The samples were cooled at 4° C. for 1 h to precipitate the membrane proteins and spun in a benchtop centrifuge for 3 minutes at 14.5 krpm. The volume of each sample was quantitatively transferred to a 96-well filter plate and further processed as described above.
LC-MRM-MS analyses of the lyso-Gb1 for both DBS and organ extracts were performed using a Waters Acquity UPLC (Waters, UK) coupled with an ABSciex 5500 TripleQuad mass spectrometer (ABSciex, Darmstadt, Germany). Chromatographic run was performed on a C8 column with pore size of […] (ACE columns, Germany) using a flow rate of 0.9 ml/min preheated at 60° C. The 10 μl extract were injected on the column and the compounds were eluted using a linear gradient from 40% A (50 mM formic acid in water) to 100% B (50 mM formic acid in acetone:acetonitrile vol. 1:1). Upstream from UPLC a 3:1 flow splitter was added. The following MRM transitions were monitored: 624.3-282.2 for the internal standard (with DP of 30V, CE of 38 V and CXP of 10 V) and 462.3→282.2 for lyso-Gb1 (with DP of 28V, CE of 30 V and CXP of 10 V). MRM-MS analyses were performed in positive ion mode using the following parameters: CUR gas 40 psi, IS voltage 5.5 kV, CAD 8 psi, cone temperature 500° C., GS 1 45 psi, GS2 60 psi, EP 10 V. For all batches analyzed a standard curve was measured using 7 dilutions of lyso-Gb1 in ethanol (concentrations in ng/ml: 0; 5; 10; 50; 100; 200; 1000).
After 4 weeks from treatment start the organs of the mice were subjected to lyso-Gb1 analysis.

[8] = Organ weight analysis; type: in vivo, C57BL/6JRj mice
Method: as §2
3.2 As anemia is a frequent result of enlarged spleen, another hallmark of Gaucher disease, an organ weight analysis, a Western blot analysis and size and color analysis of the spleen was carried out. The results thereof are shown in FIG. 4A, FIG. 4B and FIG. 4C.

[9] = system: TNF-α and IL-1β; test: Cytokine analysis in blood (ProcartaPlex Multiplex Immunoassay); type: in vivo, mice
Method: The ProcartaPlex® Multiplex Immunoassay (ebioscience, San Diego, Calif.) was carried out following the instructions of the provider. Differences between the animal groups were obtained using automated MAGPIX® analysis device software (Luminex, Austin, Tex.) including quality control criteria.

[10] = General health, body weight and behaviour during treatment; type: in vivo, C57BL/6JRj mice
Method: as §1
Ten weeks old C57BL/6JRj mice were subcutaneously treated with high doses (10 mg*kg−1*day−1) of lyso-Gb1 for a period of up to 84 days (12 weeks).

## CCCCCCCCCCCCC/C=C/[C@@H](O)[C@@H](N)CO[C@@H]1O[C@H](CO)[C@@H](O)[C@H](O)[C@H]1O [lyso-Gb1, glucosylsphingosine]
[1]; liver
  F4/80 and CD68 protein levels in liver (Western blot): only mild changes
[1]; spleen
  F4/80 and CD68 protein levels in spleen (Western blot): pronounced increase; also recorded: elevated
[2]
  H&E histological stain of spleen, liver and femur, vehicle vs lyso-Gb1 treated: did not reveal significant abnormalities
[3]; 24 hrs after treatment start (data not shown)
  lyso-Gb1 levels in blood: strongly elevated
[3]; after 4, 8 and 12 weeks, s.c. 10 mg/kg/day
  increase of blood lyso-Gb1 level compared to the vehicle-treated mice: more than 500 fold
[3]; after 4, 8 and 12 weeks, s.c. osmotic pump, 10 mg lyso-Gb1/kg body weight daily
  lyso-Gb1 level in blood: 700 to 900 ng/mL
[3]; male, C57BL/6JRj, mouse, whole blood (dried blood spots), sc, 10 mg/kg/day, 4 weeks after begin of treatment, s.c. 10 mg*kg−1*day−1
  concentration at 4 weeks: > 500 ng/mL
[4]; 4, 8 and 12 weeks, 2× SD below the baseline value at each time point
  Hb (hemoglobin) values: mild anemia; also recorded: mild anaemia
[4]; differed at 4 and 8 weeks after treatment initiation
  Hct (haematocrit) values: significantly differed; also recorded: lowered
[4]; up to 12 weeks treatment
  thrombocytopenia / white blood cell abnormalities: no thrombocytopenia or abnormalities in white blood cells
[5]; paraffin sections from spleen
  number of CD68 and F4/80 positive cells in spleen sections in comparison to vehicle controls: marked increase
[5]; spleens of 8-week treated mice
  CD68-immunoreactivity in spleen compared to vehicle controls: strong increase
  F4/80 immunoreactivity in spleen compared to vehicle controls: increased
[6]
  calculated excretion rate of lyso-Gb1 in urine: 0.6 ng/min
[7]; 4 weeks from treatment start
  organ with highest lyso-Gb1 levels: kidney and liver
[7]; 4 weeks from treatment start, 10 mg*kg^−1*day^−1
  lyso-Gb1 levels in peripheral organs (heart, kidney, liver, spleen) compared to control animals: strongly elevated
[7]; 4 weeks from treatment start, attributed to carryover of blood in tissue capillaries
  increase of brain lyso-Gb1: 2 fold
[7]; concluded from negligible increase in brain lyso-Gb1
  crossing of the blood brain barrier: not able to cross the blood brain barrier
[8]; 8 and 12 weeks
  liver weight versus controls: not statistically significantly different; also recorded: not statistically distinct from control animals
[8]; 8 and 12 weeks from treatment initiation
  spleen weight versus controls: enlarged
[8]; lyso-Gb1 treatment started earlier (P20), data not shown
  liver size in subsequent experiment: marked enlargement of the liver
[8]; mouse, in vivo
  size of heart, lung and kidney: normal in size
[9]
  TNF-α and IL-1β in the blood: slight elevation
  upregulation of most investigated cytokines: did not find significant upregulation
[10]; mouse, in vivo
  behaviour: no behavioral abnormalities
[10]; throughout the experimental phase (up to 12 weeks)
  body weight / health status: did not lose weight
